Assay results published in US11376254B2, “Positive allosteric modulators of the muscarinic acetylcholine receptor M4” (Vanderbilt University, priority 2017, dated 2022).

Tests used:
[1] = target: T1, Human M4 (Homo sapiens, UniProt P08173); experiment: mAChR M4 cell-based functional assay (calcium flux, potentiation of ACh EC20 response); design: Emax: dose or concentration left out as unconfirmed
T1 sequence (P08173 1-479): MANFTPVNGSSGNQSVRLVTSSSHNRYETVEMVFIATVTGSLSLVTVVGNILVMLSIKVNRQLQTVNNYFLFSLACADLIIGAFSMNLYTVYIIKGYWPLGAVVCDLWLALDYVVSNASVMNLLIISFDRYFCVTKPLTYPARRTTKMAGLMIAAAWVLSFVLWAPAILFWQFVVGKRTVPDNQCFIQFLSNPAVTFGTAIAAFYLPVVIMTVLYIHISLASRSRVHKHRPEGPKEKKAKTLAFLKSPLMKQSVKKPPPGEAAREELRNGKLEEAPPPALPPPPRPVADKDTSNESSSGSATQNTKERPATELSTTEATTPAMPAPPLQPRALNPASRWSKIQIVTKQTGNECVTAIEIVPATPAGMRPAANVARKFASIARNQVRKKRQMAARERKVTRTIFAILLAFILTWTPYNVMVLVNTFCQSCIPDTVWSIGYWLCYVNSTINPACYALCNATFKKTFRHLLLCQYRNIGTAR

[2] = human, in vivo; cited from earlier work
[3] = In vitro DMPK: human fraction unbound in plasma; type: in vitro ADME; conditions: read-out: Human Fu (plasma)
Description: (§1) Compound 1 was tested in several in vitro assays to investigate both metabolism and pharmacokinetics. These assays were performed according to known methods as generally described in the following references: Conde-Ceide et al. ACS Med. Chem. Lett. 2015, 6, 716-720; Morris et al. J. Med. Chem. 2014, 57, 10192-10197; and Bubser et al. ACS Chem. Neurosci. 2014, 5, 920-942.

[4] = In vitro DMPK: human predicted hepatic clearance; type: in vitro ADME
Description: as §1

[5] = In vivo DMPK in rat (plasma clearance, brain:plasma distribution); conditions: read-out: Rat CLp
[6] = In vitro DMPK: rat fraction unbound in plasma; type: in vitro ADME; conditions: read-out: Rat Fu (plasma)
Description: as §1

[7] = In vitro DMPK: rat fraction unbound in brain; type: in vitro ADME; conditions: read-out: Rat Fu (brain)
Description: as §1

[8] = In vitro DMPK: rat predicted hepatic clearance; type: in vitro ADME
Description: as §1

[9] = without causing catalepsy; cited from earlier work
[10] = Alzheimer's disease patients; delusions, suspiciousness, vocal outbursts, hallucinations; cited from earlier work

Row | EC50 [1] | Emax [1] | SMILES | other results
1 | 572 nM | 72.2% | Cc1c(C(F)F)nnc2sc3c(N4CCOCC4)ncnc3c12 [Compound 6, 4-(3-(difluoromethyl)-4-methylpyrimido[4′,5′:4,5]thieno[2,3-c]pyridazin-8-yl)morpholine] | 
2 | 1060 nM | 81.9% | Cc1c(C(F)F)nnc2sc3c(N4CC(CO)(CO)C4)ncnc3c12 [Compound 5, (1-(3-(difluoromethyl)-4-methylpyrimido[4′,5′:4,5]thieno[2,3-c]pyridazin-8-yl)azetidine-3,3-diyl)dimethanol] | 
3 | 809 nM | 95.5% | Cc1c(C(F)F)nnc2sc3c(NCc4ccc(C5(O)CCC5)cc4)ncnc3c12 [Compound 9, 1-(4-(((3-(difluoromethyl)-4-methylpyrimido[4′,5′:4,5]thieno[2,3-c]pyridazin-8-yl)amino)methyl)phenyl)cyclobutan-1-ol] | 
4 | 271 nM | 95.4% | Cc1c(C(F)F)nnc2sc3c(NC4CCCC4)ncnc3c12 [Compound 7, N-cyclopentyl-3-(difluoromethyl)-4-methylpyrimido[4′,5′:4,5]thieno[2,3-c]pyridazin-8-amine] | 
5 | 238 nM | 83.5% | Cc1c(C(F)F)nnc2sc3c(N4CCCC4)ncnc3c12 [Compound 3, 3-(difluoromethyl)-4-methyl-8-(pyrrolidin-1-yl)pyrimido[4′,5′:4,5]thieno[2,3-c]pyridazine] | 
6 | > 10000 nM | 68.7% | Cc1ccccc1OC1CCN(c2ncnc3c2sc2nnc(C(F)F)c(C)c23)C1 (stereo not shown) [Compound 11, 3-(difluoromethyl)-4-methyl-8-(3-(o-tolyloxy)pyrrolidin-1-yl)pyrimido[4′,5′:4,5]thieno[2,3-c]pyridazine] | 
7 | 84.1 nM | 82.7% | Cc1c(C(F)F)nnc2sc3c(N4CC5(COC5)C4)ncnc3c12 [Compound 4, 6-(3-(difluoromethyl)-4-methylpyrimido[4′,5′:4,5]thieno[2,3-c]pyridazin-8-yl)-2-oxa-6-azaspiro[3.3]heptane] | 

More lines, now with the values behind:

Row | SMILES | EC50 [1] | Emax [1] | other results
8 | [2H]C([2H])(Nc1ncnc2c1sc1nnc(C(F)F)c(C)c12)c1ccc(C(C)(C)O)cc1 [Compound 8, 2-(4-(((3-(difluoromethyl)-4-methylpyrimido[4′,5′:4,5]thieno[2,3-c]pyridazin-8-yl)amino)methyl-d2)phenyl)propan-2-ol] | 528 nM | 95.8% | 
9 | Nc1c2c(nc3ccccc13)CCCC2 [tacrine] |  |  | patients with elevated liver transaminases (hepatotoxicity) [2]: about 30%
10 | COc1ccc(CNc2ncnc3c2sc2nnc(C(F)F)c(C)c23)cc1F [Compound 2, 3-(difluoromethyl)-N-(3-fluoro-4-methoxybenzyl)-4-methylpyrimido[4′,5′:4,5]thieno[2,3-c]pyridazin-8-amine] | 581 nM | 79.8% | 
11 | Cc1c(C(F)F)nnc2sc3c(NCc4ccc(C(C)(C)O)cc4)ncnc3c12 [Compound 1, 2-(4-(((3-(Difluoromethyl)-4-methylpyrimido[4′,5′:4,5]thieno[2,3-c]pyridazin-8-yl)amino)methyl)phenyl)propan-2-ol] |  | 98.7% | fraction unbound [3]: 0.01; Human Predicted CLhep (mL/min/kg) Method A ([4]; Method A (first line)): 6.69 mL/min/kg; Human Predicted CLhep (mL/min/kg) Method A ([4]; second line also printed as Method A): 0.34 mL/min/kg; clearance [5]: 2.67 mL/min/kg; fraction unbound [6]: 0.012; fraction unbound [7]: 0.006; Rat Predicted CLhep (mL/min/kg) Method A [8]: 19.1 mL/min/kg
12 | Cc1c(C(F)F)nnc2sc3c(NCc4ccc(C(C)(O)C5CC5)cc4)ncnc3c12 (stereo not shown) [Compound 10, 1-cyclopropyl-1-(4-(((3-(difluoromethyl)-4-methylpyrimido[4′,5′:4,5]thieno[2,3-c]pyridazin-8-yl)amino)methyl)phenyl)ethan-1-ol] | 860 nM | 95.5% | 
13 | CCCCCCOc1nsnc1C1=CCCN(C)C1 [xanomeline] |  |  | activity in animal models with profiles similar to known antipsychotic drugs [9]: active in animal models; effect on psychotic behavioral symptoms [10]: reduce psychotic behavioral symptoms
